According to paper PMC11901438, “Synthesis and Evaluation of Boron-Containing Heterocyclic Compounds with Antimicrobial and Anticancer Activities” (Molecules, 2025):
In brackets after ≈: the same amount, converted by molar mass.

How the values were obtained:
[1] = system: T. mentagrophytes (ATCC 11481); test: Antifungal susceptibility test (CLSI M38-A2 microdilution, resazurin), MIC90; settings: Trichophyton mentagrophytes, ATCC11481|ATCC28189, read-out: T. mentagrophytes ATCC 28189 MIC90
NOK-si cells = test: MTT cytotoxicity assay in normal oral keratinocytes NOK-si; assay type: cell-based; settings: Keratinocyte, 24 h, read-out: NOK-si IC50
Description: (§1) Boronic acid and benzoboroxole derivatives have been identified as potential anticancer agents. To investigate their efficacy against head and neck cancer cell lines, SCC-25 cells were utilized in this study, as a model for oral squamous cell carcinoma. Additionally, cytotoxicity was performed in normal oral keratinocytes NOK-si cells to evaluate the selective index of the compounds. […] The selectivity of the compounds is quantified by the selectivity index (SI), with those with an SI greater than 3.0 being considered promising for further evaluation, in accordance with internal protocols.
(§2) The SCC-25 was purchased from Rio de Janeiro Cell Bank, and NOK-si was kindly provided by Prof. Carlos Rossa from the School of Dentistry—UNESP. The cell lines were initially thawed and cultured in 25 cm^2 cell culture flasks. Cell growth was monitored using a microscope, and the culture medium was changed periodically. Upon reaching confluency, cell dissociation was achieved by adding 5 mL of trypsin (Sigma-Aldrich, St Louis, MO, USA) and incubating the bottles in a CO2 incubator for 10 min. Subsequently, the cells were transferred to 15 mL Falcon tubes and centrifuged at 2000 rpm for 10 min. Cell counting was performed using a Countess II FL automated cell counter (ThermoFischer, Waltham, MA, USA). The cells were seeded at a density of 30,000 cells per well in 96-well plates. The plates were then incubated at 37 °C in 5% CO2 for 24 h. Following this, test compounds were incubated for another 24 h at 10 different concentrations: 50, 25, 12.5, 6.25, 3.12, 1.56, 0.78, 0.39, 0.19, and 0.097 µg/mL. After the specified time, MTT reagent (3 mg/mL) (Sigma-Aldrich, St Louis, MO, USA) dissolved in phenol-free RPMI 1640 was added and incubated for 4 h. The formed MTT crystals were solubilized using 2-propanol P.A (Sigma-Aldrich, St Louis, MO, USA) with agitation. Absorbance was read at 562 nm using an EZ Read 400 microplate reader (Biochrom, Cambridge, UK) and ADAP 2.0 Biochrom software (version 2.0). IC50 values and graphs were calculated by Dr. Paula Aboud Barbugli using Excel and Prism software (version 10.4.1). The MTT assay results were evaluated for normality using the Shapiro–Wilk test, followed by one-way ANOVA with Tukey’s post hoc test at a significance level of 5%.

SCC-25 cells = test: MTT anticancer assay in SCC-25 cells; assay type: cell-based; settings: for IC50: MTT, 24 h; for SI (selectivity index): NOK-si versus SCC-25
Description: as §1, §2

T. rubrum ATCC 28189 = test: Antifungal susceptibility test (CLSI M38-A2 microdilution, resazurin), MIC90; settings: Trichophyton rubrum, ATCC28189, read-out: T. rubrum ATCC 28189 MIC90
[2] = system: M. tuberculosis H37RV ATCC 27294 strain; test: Resazurin microtiter assay (REMA), MIC90; assay type: cell-based; settings: Mycobacterium tuberculosis, cut-off 25 µM
HaCaT cell line = test: Resazurin cytotoxicity assay using HaCaT cells; assay type: cell-based, human; settings: compared to the benzoboroxole derivatives 44 and 45
Description: For the cytotoxicity assay, the HaCaT cell line, which is characterized as immortalized normal human keratinocytes, was used.
For the cytotoxicity assay, the HaCat cell line, characterized as immortalized normal human keratinocytes, was used. The cells were maintained in (DMEM) supplemented with 10% of bovine fetal serum (BFS) (Sigma-Aldrich, St Louis, MO, USA) in cell culture bottles with 5% CO2 at 37 °C. After a confluence of 75%, the cells were treated with trypsin + EDTA 0.25%, centrifugated at 1500 rpm for 10 min, and 5 × 10^4 cells/well were seeded in 96-well plates for incubation for 24 h for cell adhesion before treatment. After adhesion, the cells were treated with 100 µL of the compounds 34 and 40, with fungi activity in concentrations between 3.90 and 125 µg/mL. Regarding the controls, DMSO in the concentration range of (1–4%) was used as a positive control for cytotoxicity; the beyond negative control comprised HaCaT cells only in DMEM medium (Sigma-Aldrich, St Louis, MO, USA). After 24 h of treatment, 30 µL of resazurin 50 µM was added to each well for 4 h, and the plates were read at 560 and 600 nm using microplate reader BioTek (Agilent, Santa Clara, CA, USA), Gen 5 software (version 2.09). The […] (IC50) for each compound was determined based on resazurin reduction. Three independent assays were performed.

C. albicans ATCC 90028 = test: Antifungal susceptibility test (CLSI M27-A3 microdilution, resazurin), MIC90; settings: Candida albicans, ATCC90028, read-out: C. albicans ATCC 90028 MIC90
[3] = system: T. rubrum (ATCC 1890, ATCC 18759); parameters: method as in PMID 17588934; settings: cited from earlier work
M. gypseum (ATCC 24103) = system: M. gypseum (ATCC 24103); parameters: method as in PMID 17588934; settings: cited from earlier work
[4] = system: E. floccosum (ATCC 525066); parameters: method as in PMID 17588934; settings: cited from earlier work
T. rubrum = system: T. rubrum; parameters: method as in PMID 29371574; settings: cited from earlier work
[5] = system: M. audouinii (ATCC 42558); parameters: method as in PMID 17588934; settings: cited from earlier work
[6] = system: T. mentagrophytes (ATCC 28185); parameters: method as in PMID 17588934; settings: cited from earlier work
T. mentagrophytes = system: T. mentagrophytes; parameters: method as in PMID 29371574; settings: cited from earlier work
[7] = parameters: method as in PMID 26640371; settings: cited from earlier work
[8] = target: leucyl-tRNA synthetase (LeuRS); parameters: method as in PMID 28953378, PMID 38365949; settings: cited from earlier work
[9] = system: M. tuberculosis H37Rv strains; settings: cited from earlier work

SMILES | MIC90 [1] | CC50 (NOK-si cells) | IC50 (SCC-25 cells; Homo sapiens, SCC-25, 24 h) | SI (selectivity index) (SCC-25 cells) | MIC90 (T. rubrum ATCC 28189) | MIC90 [2] | other results
O=C(Nc1ccc(N2CCCCCC2)c(F)c1)c1cccc(B(O)O)c1 [Compound 34, (3-{[4-(Azepan-1-yl)-3-fluorophenyl]carbamoyl}phenyl)boronic acid] | 21 µM (≈ 7.48 µg/mL) | 129 µM | 67.6 µM | 1.91 | 42 µM (≈ 15 µg/mL) | > 25 µM | cytotoxic effects in HaCaT cells (comparison in words) (HaCaT cell line): higher cytotoxic effects
CCC(C)n1ncn(-c2ccc(N3CCN(c4ccc(OCC5COC(Cn6cncn6)(c6ccc(Cl)cc6Cl)O5)cc4)CC3)cc2)c1=O (stereo not shown) [Itraconazole] | – | – | – | – | – | – | MIC90 (C. albicans ATCC 90028): 0.00034 µM (≈ 0.00024 µg/mL)
OB1OCc2cc(F)ccc21 [Tavaborole] | – | – | – | – | – | – | MIC [3]: 2.0 µg/mL (≈ 13.2 µM); MIC (M. gypseum (ATCC 24103)): 2.0 µg/mL (≈ 13.2 µM); MIC [4]: 1.0 µg/mL (≈ 6.58 µM); MIC (fungistatic effects) (T. rubrum): 8 µg/mL (≈ 52.7 µM); MIC [5]: 2.0 µg/mL (≈ 13.2 µM); MIC [6]: 2.0 µg/mL (≈ 13.2 µM); MIC (fungistatic effects) (T. mentagrophytes): 8 µg/mL (≈ 52.7 µM); rate of complete cure [7]: ≤ 10%; rate of mycological cure [7]: up to 36%
O=C(Nc1ccc(N2CCCCCC2)c(F)c1)c1ccc(B(O)O)cc1 [Compound 40, (4-{[4-(Azepan-1-yl)-3-fluorophenyl]carbamoyl}phenyl)boronic acid] | 42 µM (≈ 15 µg/mL) | 127 µM | 85.1 µM | 1.49 | 88 µM (≈ 31.3 µg/mL) | > 25 µM | cytotoxic effects in HaCaT cells (comparison in words) (HaCaT cell line): higher cytotoxic effects
NC[C@H]1OB(O)c2c(OCCO)ccc(Cl)c21 [ganfeborole, (S)-3-(aminomethyl)-4-chloro-7-(2-hydroxyethoxy)benzo[c][1,2]oxaborol-1(3H)-ol] | – | – | – | – | – | – | IC50 [8]: 0.2 µM; MIC90 [9]: 0.08 µM (≈ 0.0206 µg/mL); MIC against M. tuberculosis H37Rv strains [9]: 0.08 µM (≈ 0.0206 µg/mL)
O=C(Nc1ccc(N2CCSCC2)c(F)c1)c1ccc2c(c1)COB2O [Compound 45, N-(3-fluoro-4-thiomorpholinophenyl)-1-hydroxy-1,3-dihydrobenzo[c][1,2]oxaborole-5-carboxamide] | 336 µM (≈ 125 µg/mL) | 65.8 µM | 83 µM | <1 | 336 µM (≈ 125 µg/mL) | > 25 µM | –
O=C(Nc1ccc(N2CCN(c3ccccn3)CC2)c(F)c1)c1cccc(B(O)O)c1 [Compound 29, {3-({3-Fluoro-4-[4-(pyridin-2-yl)piperazin-1-yl]phenyl}carbamoyl)phenyl}boronic acid] | 297 µM (≈ 125 µg/mL) | 110 µM | 79.1 µM | <1 | 297 µM (≈ 125 µg/mL) | > 25 µM | IC50 (SCC-25 cells): 117 µM
